Tested on: α-HCoV 229E, β-HCoV OC43, MERS-CoV, SARS-CoV, SARS-CoV-2 variants (Delta, BA.2)
Format: cell-based
Settings: read-out: EC50 against all tested variants

C#CCn1c(C)c(-n2nnc3ccccc32)c(=O)n(-c2cncc3ccccc23)c1=O [AVI-4516] gave an EC50 of less than 3000 nM.
